Data from US6458590B1, “Methods and compositions for treatment of restenosis” (The United States of America, as represented by the …, priority 1997, dated 2002).

Assays:
OPN [1] = assay: OPN expression in lipofected CASMCs (immunoprecipitation, Western blot); type: cell-based, human
Protocol: (§1) CASMCs (Clonetics) were transfected with a “LIPOFECTIN”-oligonucleotide complex according to the manufacturer's (GIBCO-BRL Life Technologies, Inc. Gaithersburg, Md.) specifications. Briefly, 5 μg of “LIPOFECTIN” was mixed with either 1 or 2 μg of antisense oligonucleotide in 200 μl of serum free medium (SFM) (also called basal medium) and incubated at room temperature for 15 min. Cells (1×10^5 cells/well, 12-well plate) during log phase of growth were washed with SFM and 1 ml of SFM containing Lipofectin with different amounts of antisense S-oligonucleotides was added to each well and mixed by gentle agitation. The cells were incubated further with the same medium at 37° C. for 12 h. Additional control cells which received either SFM, or SFM which contained “LIPOFECTIN” alone, were also included. […] The SFM medium containing “LIPOFECTIN”-oligonucleotide complex was removed, and the cells incubated for an additional 48 h in regular medium. At the end of this incubation period, the cells were ready for the determination of a dose response on OPN expression as measured by Western blotting.
The effect of antisense OPN sequences on OPN expression was determined by Western blot analysis as described above. […]

[2] = system: human coronary artery smooth muscle cells (CASMCs); assay: Proliferation of CASMCs after lipofection with OPN oligonucleotides ([3H]-thymidine); type: cell-based; conditions: oligonucleotide 1.5 μg/200 μl with LIPOFECTIN 5 μg/200 μl
Protocol: as §1
The effect of antisense ASHOPN-P1 on the proliferation of human coronary artery smooth muscle cells (CASMCs) was determined as described supra. […] The acid precipitable radioactivity was measured using a scintillation beta counter (Beckman).

OPN [3] = assay: OPN production in PMA-stimulated CASMCs (immunoprecipitation, Western blotting); type: cell-based, human; conditions: 250 nM PMA, 37° C., 24 h
Protocol: An in vitro assay was used in order to determine whether an increase in OPN gene expression is detectable. Since phorbol myristate acetate (PMA) is known to induce OPN gene expression, CASMCs were stimulated with PMA, and OPN production was detected by immunoprecipitation of cell lysates followed by Western blotting.
CASMCs were incubated with Phorbol 12-myristate 13-acetate (PMA) (250 nM) at 37° C. for 24 h. The cells were immunoprecipitated using a kit according to manufacturer's (Boehringer Mannheim) instructions. Briefly, the cells were lysed with lysis buffer, centrifuged and the supernatant incubated with rabbit OPN-antibody for 1 h then with protein A-agarose at 4° C. overnight. Bound complexes were pelleted by centrifugation, washed and electrophoresed. Western blot analysis was done as described, supra.

CASMCs = assay: CASMC proliferation assay ([3H]thymidine); type: cell-based, human
Protocol: CASMCs were cultured as described above and the cells were starved in serum free media for 48 h. The proliferation assays were performed as described previously (Monfardini et al., (1995) J. Biol. Chem. 270:6628-6638). Briefly, the cells were incubated in the absence or presence of PDGF-AB (100 ng/ml) (Upstate Biotechnology, Lake Placid, N.Y.) and increasing concentrations of OPN (1.0-6.0 μg/ml) at 37° C. for 24 h. In separate experiments, cells were pre-treated with either mouse anti human αvβ3-antibody (5 μg/ml), preimmune IgG or GRGDS peptide (10 nM) followed by OPN (3.0 μg/ml). After 4 h, [3H]thymidine (1 μCi/ml) was added and the cells were maintained in culture for an additional 24 h under the same culture conditions as described previously. After removing the supernatants, the cells were washed with basal medium and lysed in 50% TCA. The acid precipitable cell-bound radioactivity was measured using a scintillation counter (Beckman).

CASMC = assay: ECM-invasion assay (matrigel-coated invasion chamber); type: cell-based, human; conditions: OPN 0.5-2.0 μg/ml, 24 h
Protocol: The ECM-invasion assay was performed using a commercially available 24-well matrigel-coated invasion chamber (Collaborative Research) as described previously (Kundu et al., (1996) Proc. Natl. Acad. Sci. (USA) 93:2915-2919). Briefly, the confluent CASMC were trypsinized, centrifuged, and resuspended in basal medium supplemented with 0.1% BSA. The lower compartment of the invasion chamber was filled with fibroblast-conditioned medium (FCM) which served as a chemoattractant. The invasion assays were initiated by inoculating the upper chamber with cells (1×10^5/well) which were either untreated or treated with varying concentrations of OPN (0.5-2.0 μg/ml). After incubating at 37° C. for 24 h, the cells in the upper chamber were discarded, the matrigel was scraped clear and the cells which had invaded the matrigel and migrated to the lower surface of the filter, were fixed, stained, counted and photomicrographed (120×) as described above. The cells were also pre-treated with mouse anti-human αvβ3 antibody (Chemicon) (10 μg/ml) as described above to determine if the OPN-induced invasion was mediated via αvβ3. Preimmune IgG was used as a non-specific control.

human CASMC = assay: CASMC migration assay (Transwell); type: cell-based; conditions: OPN 0.68 or 1.36 μg/ml as chemoattractant, 24 h
Protocol: Migration of CASMC was performed using Transwell cell culture chambers with an […] pore size polycarbonate membrane (Costar) as described previously (Yue et al., (1994) Exptl. Cell Res. 214:459-464). Briefly, sub-confluent human CASMC were trypsinized, centrifuged and resuspended in basal medium (SmBM) supplemented with 0.2% BSA. This was followed by the addition of 0.25 ml of cell suspension (5×10^4 cells) to the upper compartnent of the chamber. The lower compartment contained 0.5 ml of basal medium supplemented with 0.2% BSA together with 0.68 μg/ml OPN, 1.36 μg/ml OPN, or buffer alone. After incubation at 37° C. for 24 h., the non-migrated cells on the upper surface of the filters were scraped and washed. The migrated cells were fixed in methanol, stained with Giemsa stain, counted under an inverted microscope and photomicrographed (120×) using a Zeiss photomicroscope (Axiovert 405 M). In separate experiments, cells in the upper compartment were also treated with monoclonal mouse anti-human αvβ3-antibody (Chemicon) (10 μg/ml) before being assayed for migration in order to ascertain whether this OPN-stimulated migration is mediated via αvβ3. Preimmune IgG treatment served as a non-specific control.

Compound: 5′-AATCACTGCAATTCTCATGG-3′ (all phosphorothioate, sugars by position and methylation of C not given here; listed as Homo sapiens) [ASHOPN-P1]
- expression of OPN by CASMCs (OPN [1]; 1 or 2 μg S-oligonucleotide with LIPOFECTIN, versus LIPOFECTIN-treated or sense-treated cells): capable of inhibiting expression of OPN
- specificity of the antisense effect (OPN [1]; compared with OPN sense-treated cells): specific
- inhibition of cell proliferation as compared to cells treated with LIPOFECTIN alone [2]: 82%

Compound: 5′CCATGAGAATTGCAGTGATT-3′ (all phosphorothioate, sugars by position and methylation of C not given here; listed as Homo sapiens) [SHOPN, reference compound]
- inhibition of cell proliferation as compared to cells treated with LIPOFECTIN alone [2]: about 50%

Compound: CCCCCCCCCCCCCC(=O)O[C@@H]1[C@@H](C)[C@@]2(O)[C@@H](C=C(CO)C[C@]3(O)C(=O)C(C)=C[C@@H]23)[C@@H]2C(C)(C)[C@]12OC(C)=O [PMA, Phorbol 12-myristate 13-acetate]
- level of OPN protein in stimulated cells versus unstimulated cells (OPN [3]): markedly higher

Compound: Gly-Arg-Gly-Asp-Ser (GRGDS) [reference compound]
- effect on OPN-induced proliferation (CASMCs; pre-treatment: αvβ3-antibody 5 μg/ml or GRGDS 10 nM, then OPN 3.0 μg/ml): drastically inhibited

Compound: osteopontin [OPN]
- invasiveness of CASMCs on MATRIGEL (CASMC): enhanced their invasiveness
- CASMC proliferation (CASMCs; OPN 1.0-6.0 μg/ml): stimulated their proliferation in a dose-dependent manner
- CASMC proliferation, OPN in conjunction with PDGF-AB (CASMCs; with 100 ng/ml of PDGF-AB): dramatic dose-dependent effect
- CASMC proliferation, OPN alone (CASMCs; without PDGF-AB): modest proliferative response
- rate of migration of CASMCs (human CASMC): enhanced with increasing concentrations

Compound: platelet-derived growth factor-AB [PDGF-AB, reference compound]
- CASMC proliferation, PDGF-AB alone (CASMCs; PDGF-AB 100 ng/ml, without OPN): virtually no effect
